Reference: PubChem BioAssay (NCI)
Several values for one entry are separate records, joined by “and”; a condition that tells them apart may be missing. Equal values may be shown once.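 48-hour exposure; five concentrations; linearly interpolated endpoints. Abbreviation: GI50, concentration required for 50% inhibition of growth. TGI is the concentration that stops growth completely.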

Assays:
Test in all cases: NCI anticancer screen, dose series, 48 h
HCC-2998 colon = system: HCC-2998 colon
MDA-MB-231 breast = system: MDA-MB-231 breast
OVCAR-3 ovarian = system: OVCAR-3 ovarian
OVCAR-5 ovarian = system: OVCAR-5 ovarian
SF-295 CNS = system: SF-295 CNS
SK-MEL-2 melanoma = system: SK-MEL-2 melanoma
SK-MEL-28 melanoma = system: SK-MEL-28 melanoma
SK-MEL-5 melanoma = system: SK-MEL-5 melanoma
SNB-19 CNS = system: SNB-19 CNS
NCI-H522 lung = system: NCI-H522 lung

| SMILES | TGI (HCC-2998 colon) | TGI (MDA-MB-231 breast) | TGI (OVCAR-3 ovarian) | TGI (OVCAR-5 ovarian) | TGI (SF-295 CNS) | TGI (SK-MEL-2 melanoma) | TGI (SK-MEL-28 melanoma) | TGI (SK-MEL-5 melanoma) | TGI (SNB-19 CNS) | TGI (NCI-H522 lung) | GI50 (HCC-2998 colon) | GI50 (OVCAR-3 ovarian) | GI50 (SNB-19 CNS) | GI50 (MDA-MB-231 breast) | GI50 (NCI-H522 lung) | GI50 (OVCAR-5 ovarian) | GI50 (SF-295 CNS) | GI50 (SK-MEL-2 melanoma) | GI50 (SK-MEL-28 melanoma) | GI50 (SK-MEL-5 melanoma) |
| --- | --- | --- | --- | --- | --- | --- | --- | --- | --- | --- | --- | --- | --- | --- | --- | --- | --- | --- | --- | --- |
| Oc1ccc(Cl)cc1C1=N/C(=N\C/N=C2\N=C(c3cc(Cl)ccc3O)CC(c3ccccc3)N2)NC(c2ccccc2)C1 (centres undefined) | > 100 µM | > 100 µM | > 100 µM | > 100 µM | > 100 µM | > 100 µM | > 100 µM | > 100 µM | > 100 µM |  |  |  |  |  |  |  |  |  |  |  |
| CC(=O)Nc1ccc(C(=O)N2N=C(C)/C(=C/c3cccc([N+](=O)[O-])c3)C2=O)cc1 | > 100 µM |  | > 100 µM | > 100 µM | > 100 µM |  | > 100 µM | > 100 µM | > 100 µM | > 100 µM |  |  |  |  |  |  |  |  |  |  |
| Cc1ccc(OCC2OC(n3cnc4c(Cl)ncnc43)CC2Oc2ccc(C)cc2)cc1 (centres undefined) | 12.8 µM and 37 µM | 17.8 µM and 30.6 µM | 9.72 µM and 27.7 µM | 68.5 µM and > 79.7 µM | 30.2 µM and 38.1 µM | 30.2 µM and 33.8 µM | 14.9 µM | 30.5 µM and 34.9 µM | 6.86 µM and 33.4 µM | 6.66 µM and 3.82 µM | 5.44 µM and 16.8 µM | 3.16 µM and 8.9 µM | 2.8 µM and 17 µM |  |  |  |  |  |  |  |
| C=CCC1(CC)C(=O)NC(=O)NC1=O | > 100 µM |  | > 100 µM |  |  |  | > 100 µM |  | > 100 µM | > 100 µM |  |  |  |  |  |  |  |  |  |  |
| COc1cc(OC)cc(-c2n/c(=C\c3c(O)[nH]c4ccc(Cl)cc34)cc3c2=Nc2ccccc2-3)c1 | 19.5 µM | 13.4 µM | 5.22 µM | 63.8 µM | 6.11 µM | 43.4 µM | > 100 µM | 62.5 µM | 16.1 µM | 10.5 µM | 4.22 µM | 2.46 µM | 3.54 µM | 2840 nM | 3.09 µM | 20.5 µM | 2320 nM | 20.8 µM | 29.3 µM | 17.7 µM |
| COP(=O)(OC)C(NC=O)P(=O)(OC)OC | > 100 µM | > 100 µM | > 100 µM |  | > 100 µM |  | > 100 µM | > 100 µM | > 100 µM |  |  |  |  |  |  |  |  |  |  |  |
| O=C(N/N=C/c1ccc(Cl)cc1)c1cc(I)cc(I)c1O |  | > 100 µM | > 100 µM | > 100 µM | > 100 µM | > 100 µM | > 100 µM | > 100 µM | > 100 µM |  |  |  |  |  |  |  |  |  |  |  |
| Cc1ccc(SC[C@@]2(C(F)F)NC(=O)NC2=O)cc1 | > 100 µM | > 100 µM | > 100 µM | > 100 µM | > 100 µM | > 100 µM | > 100 µM | > 100 µM | > 100 µM | > 100 µM |  |  |  |  |  |  |  |  |  |  |
| CSc1nc(C#N)c(N)n1C |  | > 100 µM | > 100 µM | > 100 µM | > 100 µM | > 100 µM | > 100 µM | > 100 µM | > 100 µM | > 100 µM |  |  |  |  |  |  |  |  |  |  |
| N=C(N)SCCCN | 20.3 µM | 12.1 µM | 30.5 µM | > 100 µM | > 66.8 µM | 32.2 µM | > 86 µM | 30.1 µM | > 82.7 µM | 25.5 µM |  |  |  |  |  |  |  |  |  |  |
